Like-named read-outs stand apart in the source and are kept apart here.
Key:
[1] = Mouse plasma stability protocol, up to 1 h (Examples 16-18); settings: % Remaining of parent after 1 h incubation in mouse plasma at 37° C. (10 μM)
[2] = female, SCID, mouse, in vivo
Procedure: Using the 10 mM stock solutions of the SDC-TRAP molecule and its Hsp90i binding moiety and effector moiety in DMSO, spiking solutions were prepared at 0.025, 0.05, 0.1, 0.5, 1, 5, 10, 50, 100, 250, and 500 μM in DMSO. 5 μL of each spiking solution was added to a 96-deep well plate.
Quality control standards were prepared from 5 μL of 0.1, 1, and 10 μM calibration standard spiking solution added in triplicate into 96-deep well plate and adding 50 μL of matrix (plasma or homogenized tumor).
To prepare test samples, test plasma was diluted as needed using blank plasma.
Tumor samples were pulverized in liquid nitrogen, weighed, and homogenized in PBS at 5× volume to sample weight. 50 μL of unknown plasma or homogenized tumor sample was mixed with 5 μL of DMSO. The samples were extracted by precipitating calibration standards, QC standards, and unknown samples with 200 μL of internal standard solution. The samples were mixed by vortex at room temperature for approximately 1.5 minutes, then centrifuge at 2-8° C. 150 μL of supernatant was collected and 25 μL of water added. Samples were mixed and analyzed by LC-MS/MS.
Samples of plasma, heart and tumor were excised from a euthanized mouse, homogenized in PBS at 5 times tissue weight and diluted in 5 μL DMSO/50 μL sample. Prior to analysis, 55 μL samples and calibration standards were precipitated in 200 μL methanol in 96-well plates. Samples were mixed on a vortex mixer for 1.5 minutes at 1500 rpm at room temperature, then centrifuged at 4400 rpm for 10 minutes at 8° C. 150 μL of each supernatant was transferred to a well of a new 96-well plate, and 25 μL of water was added and mixed with the sample. […] For the analysis of samples from female SCID mice, a gradient of solvent A (water/0.1% formic acid) and B (acetonitrile/0.1% formic acid) was used as in Table 2 below.
Various SDC-TRAP molecules and appropriate controls were administered to mice and after various time points the plasma and tumor concentration of these molecules was determined.

[3] = Metabolite profiling and identification; assay type: in vitro ADME; set-up: key: —: Not detected; settings: for Metabolite N-dealkylation + glucuronidation: M+1 527.3; for Metabolite Sulfation: M+1 542.3; for Metabolite Hydrolysis (SN-38): M+1 393.3; for Metabolite Hydrolysis (SDC-TRAP-0062): M+1 462.3; for Metabolite Hydrolysis (SN-38) + glucuronidation: M+1 569.3; for Metabolite Hydrolysis (SDC-TRAP-0062) + glucuronidation: M+1 638.3; for Metabolite Hydrolysis (SDC-TRAP-0063): M+1 880.3; for Metabolite Hydrolysis (SDC-TRAP-0063) + glucuronidation: M+1 1056.4; for Metabolite Glucuronidation: M+1 1136.4
Excerpt: Metabolite Profiling and Identification: Metabolite profiling/identification for SDC-TRAP-0063 (M+1:880.3)

## CCNC(=O)c1nnc(-c2cc(C(C)C)c(O)cc2O)n1-c1ccc(C(=O)N2CCN(c3ccc(OC(=O)Nc4cccc5c4C(=O)N(C4CCC(=O)NC4=O)C5=O)c(OC)c3)CC2)cc1 (stereo not drawn) [SDC-TRAP-0398, 4-(4-(4-(3-(2,4-dihydroxy-5-isopropylphenyl)-5-(ethylcarbamoyl)-4H-1,2,4-triazol-4-yl)benzoyl)piperazin-1-yl)-2-methoxyphenyl (2-(2,6-dioxopiperidin-3-yl)-1,3-dioxoisoindolin-4-yl)carbamate]
[1]
  % Remaining (1 h): 1.40%

## CCc1c2c(nc3ccc(O)cc13)-c1cc3c(c(=O)n1C2)COC(=O)[C@@]3(CC)OC(=O)CN1CCC(CCn2ccc3cc(-n4c(O)nnc4-c4cc(C(C)C)c(O)cc4O)ccc32)CC1 [SDC-TRAP-0107, (S)-4,11-diethyl-9-hydroxy-3,14-dioxo-3,4,12,14-tetrahydro-1H-pyrano[3′,4′:6,7]indolizino[1,2-b]quinolin-4-yl 2-(4-(2-(5-(3-(2,4-dihydroxy-5-isopropylphenyl)-5-hydroxy-4H-1,2,4-triazol-4-yl)-1H-indol-1-yl)ethyl)piperidin-1-yl)acetate]
[1]
  % Remaining (1 h): 111%

## CC(C)c1cc(-c2nnc(O)n2-c2ccc3c(ccn3CCC3CCNCC3)c2)c(O)cc1O [DP-1]
[2]; 24 h
  Tumor Conc.: 0.404 nmol/g of tissue
[2]; 48 h
  Tumor Conc.: 1.06 nmol/g of tissue
[2]; […]
  Tumor Conc.: 0.00758 nmol/g of tissue

## CCc1c2c(nc3ccc(OC(=O)N(C)CC(=O)N4CCC(CCn5ccc6cc(-n7c(O)nnc7-c7cc(C(C)C)c(O)cc7O)ccc65)CC4)cc13)-c1cc3c(c(=O)n1C2)COC(=O)[C@]3(O)CC [SDC-TRAP-0337, (S)-4,11-diethyl-4-hydroxy-3,14-dioxo-3,4,12,14-tetrahydro-1H-pyrano[3′,4′: 6,7]indolizino[1,2-b]quinolin-9-yl (2-(4-(2-(5-(3-(2,4-dihydroxy-5-isopropylphenyl)-5-hydroxy-4H-1,2,4-triazol-4-yl)-1H-indol-1-yl)ethyl)piperidin-1-yl)-2-oxoethyl)(methyl)carbamate]
[1]
  % Remaining (1 h): 77.3%

## CCNC(=O)c1noc(-c2cc(C(C)C)c(O)cc2O)c1-c1ccc(CN2CCN(C(=O)Oc3ccc4nc5c(c(CC)c4c3)Cn3c-5cc4c(c3=O)COC(=O)C4(O)CC)CC2)cc1 (stereo not drawn) [SDC-TRAP-0236, 4,11-diethyl-4-hydroxy-3,14-dioxo-3,4,12,14-tetrahydro-1H-pyrano[3′,4′:6,7]indolizino[1,2-b]quinolin-9-yl 4-(4-(5-(2,4-dihydroxy-5-isopropylphenyl)-3-(ethylcarbamoyl)isoxazol-4-yl)benzyl)piperazine-1-carboxylate]
[1]
  % Remaining (1 h): 60.8%

## CCNC(=O)c1nnc(-c2cc(C(C)C)c(O)cc2O)n1-c1ccc(C(=O)N2CCN(c3cc(C)c(OC(=O)Nc4cccc5c4C(=O)N(C4CCC(=O)NC4=O)C5=O)c(C)c3)CC2)cc1 (stereo not drawn) [SDC-TRAP-0400, 4-(4-(4-(3-(2,4-dihydroxy-5-isopropylphenyl)-5-(ethylcarbamoyl)-4H-1,2,4-triazol-4-yl)benzoyl)piperazin-1-yl)-2,6-dimethylphenyl (2-(2,6-dioxopiperidin-3-yl)-1,3-dioxoisoindolin-4-yl)carbamate]
[1]
  % Remaining (1 h): 70.4%

## CCc1c2c(nc3ccc(OC(=O)N4CCC(S(=O)(=O)N5CCC(CCn6ccc7cc(-n8c(O)nnc8-c8cc(C(C)C)c(O)cc8O)ccc76)CC5)CC4)cc13)-c1cc3c(c(=O)n1C2)COC(=O)[C@]3(O)CC [SDC-TRAP-0336, (S)-4,11-diethyl-4-hydroxy-3,14-dioxo-3,4,12,14-tetrahydro-1H-pyrano[3′,4′:6,7]indolizino[1,2-b]quinolin-9-yl 4-((4-(2-(5-(3-(2,4-dihydroxy-5-isopropylphenyl)-5-hydroxy-4H-1,2,4-triazol-4-yl)-1H-indol-1-yl)ethyl)piperidin-1-yl)sulfonyl)piperidine-1-carboxylate]
[1]
  % Remaining (1 h): 31.7%

## CCNC(=O)c1nnc(-c2cc(C(C)C)c(O)cc2O)n1-c1ccc2c(c1)CN(C(=O)Oc1ccc3nc4c(c(CC)c3c1)Cn1c-4cc3c(c1=O)COC(=O)C3(O)CC)C2 (stereo not drawn) [SDC-TRAP-0392, 4,11-diethyl-4-hydroxy-3,14-dioxo-3,4,12,14-tetrahydro-1H-pyrano[3′,4′:6,7]indolizino[1,2-b]quinolin-9-yl 5-(3-(2,4-dihydroxy-5-isopropylphenyl)-5-(ethylcarbamoyl)-4H-1,2,4-triazol-4-yl)isoindoline-2-carboxylate]
[1]
  % Remaining (1 h): 44.7%

## CCc1c2c(nc3ccc(O)cc13)-c1cc3c(c(=O)n1C2)COC(=O)C3(CC)OC(=O)N1CCN(C(=O)C2CCN(c3ccc(-n4c(O)nnc4-c4cc(C(C)C)c(O)cc4O)cc3)CC2)CC1 (stereo not drawn)
[1]
  % Remaining (1 h): 108%

## CCc1c2c(nc3ccc(O)cc13)-c1cc3c(c(=O)n1C2)COC(=O)C3(CC)OC(=O)N(C)Cc1ccc(OC(=O)N2CCN(Cc3ccc(-n4c(O)nnc4-c4cc(C(C)C)c(O)cc4O)cc3)CC2)cc1 (stereo not drawn) [SDC-TRAP-0356, 4-(((((4,11-diethyl-9-hydroxy-3,14-dioxo-3,4,12,14-tetrahydro-1H-pyrano[3′,4′:6,7]indolizino[1,2-b]quinolin-4-yl)oxy)carbonyl)(methyl)amino)methyl)phenyl 4-(4-(3-(2,4-dihydroxy-5-isopropylphenyl)-5-hydroxy-4H-1,2,4-triazol-4-yl)benzyl)piperazine-1-carboxylate]
[1]
  % Remaining (1 h): 70.9%

## CC(C)c1cc(-c2nnc(O)n2-c2ccc3c(ccn3CCC3CCNCC3)c2)c(O)cc1O [SDC-TRAP-0062]
[3]; Hepatocytes Dog
  Metabolite N-dealkylation + glucuronidation: √
[3]; Hepatocytes Human
  Metabolite N-dealkylation + glucuronidation: √
[3]; Hepatocytes Monkey
  Metabolite N-dealkylation + glucuronidation: —
[3]; Hepatocytes Mouse
  Metabolite N-dealkylation + glucuronidation: √
  Metabolite Sulfation: —
[3]; Hepatocytes Rat
  Metabolite N-dealkylation + glucuronidation: —
  Metabolite Sulfation: √

## CCc1c2c(nc3ccc(OC(=O)N4CCC(CCn5ccc6cc(-n7c(O)nnc7-c7cc(C(C)C)c(O)cc7O)ccc65)CC4)cc13)-c1cc3c(c(=O)n1C2)COC(=O)C3(CC)OP(=O)(O)O (stereo not drawn) [SDC-TRAP-0397, 4,11-diethyl-3,14-dioxo-4-(phosphonooxy)-3,4,12,14-tetrahydro-1H-pyrano[3′,4′: 6,7]indolizino[1,2-b]quinolin-9-yl 4-(2-(5-(3-(2,4-dihydroxy-5-isopropylphenyl)-5-hydroxy-4H-1,2,4-triazol-4-yl)-1H-indol-1-yl)ethyl)piperidine-1-carboxylate]
[3]; Hepatocytes Dog
  Metabolite Hydrolysis (SN-38): √
  Metabolite Hydrolysis (SDC-TRAP-0062): √
  Metabolite Hydrolysis (SN-38) + glucuronidation: —
  Metabolite Hydrolysis (SDC-TRAP-0062) + glucuronidation: —
  Metabolite Hydrolysis (SDC-TRAP-0063): —
  Metabolite Hydrolysis (SDC-TRAP-0063) + glucuronidation: —
  Metabolite Glucuronidation: —
[3]; Hepatocytes Human
  Metabolite Hydrolysis (SN-38): √
  Metabolite Hydrolysis (SDC-TRAP-0062): √
  Metabolite Hydrolysis (SN-38) + glucuronidation: —
  Metabolite Hydrolysis (SDC-TRAP-0062) + glucuronidation: —
  Metabolite Hydrolysis (SDC-TRAP-0063): √
  Metabolite Hydrolysis (SDC-TRAP-0063) + glucuronidation: √
  Metabolite Glucuronidation: —
[3]; Hepatocytes Monkey
  Metabolite Hydrolysis (SN-38): —
  Metabolite Hydrolysis (SDC-TRAP-0062): —
  Metabolite Hydrolysis (SN-38) + glucuronidation: √
  Metabolite Hydrolysis (SDC-TRAP-0062) + glucuronidation: √
  Metabolite Hydrolysis (SDC-TRAP-0063): —
  Metabolite Hydrolysis (SDC-TRAP-0063) + glucuronidation: √
  Metabolite Glucuronidation: √
[3]; Hepatocytes Mouse
  Metabolite Hydrolysis (SN-38): √
  Metabolite Hydrolysis (SDC-TRAP-0062): √
  Metabolite Hydrolysis (SN-38) + glucuronidation: —
  Metabolite Hydrolysis (SDC-TRAP-0062) + glucuronidation: —
  Metabolite Hydrolysis (SDC-TRAP-0063): —
  Metabolite Hydrolysis (SDC-TRAP-0063) + glucuronidation: √
  Metabolite Glucuronidation: √
[3]; Hepatocytes Rat
  Metabolite Hydrolysis (SN-38): —
  Metabolite Hydrolysis (SDC-TRAP-0062): √
  Metabolite Hydrolysis (SN-38) + glucuronidation: —
  Metabolite Hydrolysis (SDC-TRAP-0062) + glucuronidation: —
  Metabolite Hydrolysis (SDC-TRAP-0063): —
  Metabolite Hydrolysis (SDC-TRAP-0063) + glucuronidation: √
  Metabolite Glucuronidation: —

— patent US10828315B2 (Madrigal Pharmaceuticals, Inc., priority 2013, dated 2020)
